Test results published in patent publication US20090264384A1, “INDOLE, BENZIMIDAZOLE, AND BENZOLACTAM BORONIC ACID COMPOUNDS, ANALOGS THEREOF AND METHODS OF USE THEREOF” (Nuada, Inc., priority 2004, published 2009).

Test: Various In Vitro Cell Biology Assays (Example 41, Tables 23-26)
Format: cell-based
Settings: IL-6 secretion (h) (PBMC), LPS 1 μg/ml, 24 h; 3×10^−6 M
Experimental: In each experiment, the respective reference compound was tested concurrently with the test compounds in order to assess the assay suitability. It was tested at several concentrations (for IC50 value determination).
The test compounds were assayed at 3×10^−6 M.
Results. The results are expressed as a percent of control values and as a percent inhibition of control values obtained in the presence of the test compounds.
The IC50 values (concentration causing a half-maximal inhibition of control values) and Hill coefficients (nH) were determined by non-linear regression analysis of the inhibition curves using Hill equation curve fitting, a summary of the data is shown in Table 26. The IC50 value for each reference compound is indicated was determined (data not shown) and was within accepted limits of the historic average ±0.5 log units.

| Structure (SMILES) | % Inhibition of Control Values |
| --- | --- |
| C[C@@H]1CC2C3CCC4=CC(=O)C=CC4(C)C3(F)[C@@H](O)CC2(C)C1(O)C(=O)CO (some centres unmarked) [drawing 92] | 57% |
| C[C@@H]1CC2C3CCC4=CC(=O)C=CC4(C)C3(F)[C@@H](O)CC2(C)C1(O)C(=O)CO (some centres unmarked) [drawing 93] | −70% |
| OB(O)CCCCCn1c(-c2cscn2)nc2ccccc21 [CCI-7034] | −89% |
| OB(O)CCCCCn1c(-c2cscn2)nc2ccccc21 [drawing 90] | −61% |

Same assay, conditions: PBMC, 24 h, IFN-γ secretion (h) (PBMC), PHA 2 μg/ml, 24 h; 3×10^−6 M; read-out: % Inhibition of Control Values

| Structure (SMILES) | inhibition at 3 µM |
| --- | --- |
| OB(O)CCCCn1c(C(F)(F)F)nc2ccccc21 [drawing 71] | -6% |
| OB(O)CCCCCn1c(-c2cscn2)nc2ccccc21 [drawing 69] | 21% |
| Nc1nc(Cl)c2ncn(CCCCCB(O)O)c2n1 [drawing 73] | 56% |
| C[C@@H]1CC2C3CCC4=CC(=O)C=CC4(C)C3(F)[C@@H](O)CC2(C)C1(O)C(=O)CO (some centres unmarked) [drawing 72] | 68% |
| N#Cc1ncnc2c1ncn2CCCCCB(O)O [drawing 74] | 14% |
| N#Cc1ccc2c(ccn2CCCCCB(O)O)c1 [drawing 70] | 16% |

Same assay, conditions: PBMC, 24 h, IL-1 □ secretion (h) (PBMC), LPS 1 μg/ml, 24 h; 3×10^−6 M; read-out: % Inhibition of Control Values

| Structure (SMILES) | inhibition at 3 µM |
| --- | --- |
| N#Cc1ncnc2c1ncn2CCCCCB(O)O [drawing 79] | -66% |
| OB(O)CCCCCn1c(-c2cscn2)nc2ccccc21 [drawing 75] | -67% |
| C[C@@H]1CC2C3CCC4=CC(=O)C=CC4(C)C3(F)[C@@H](O)CC2(C)C1(O)C(=O)CO (some centres unmarked) [drawing 78] | -12% |

Same assay, conditions: PBMC, 24 h, IL-6 secretion (h) (PBMC), LPS 1 μg/ml, 24 h; 3×10^−6 M; read-out: % Inhibition of Control Values

| Structure (SMILES) | inhibition at 3 µM |
| --- | --- |
| OB(O)CCCCn1c(C(F)(F)F)nc2ccccc21 [drawing 91] | -26% |
| N#Cc1ncnc2c1ncn2CCCCCB(O)O [drawing 94] | -30% |

Same assay, conditions: PBMC, 24 h, IL-8 secretion (h) (PBMC), LPS 1 μg/ml, 24 h; 3×10^−6 M; read-out: % Inhibition of Control Values

| Structure (SMILES) | inhibition at 3 µM |
| --- | --- |
| N#Cc1ccc2c(ccn2CCCCCB(O)O)c1 [drawing 100] | -63% |
| N#Cc1ncnc2c1ncn2CCCCCB(O)O [drawing 104] | -33% |
| C[C@@H]1CC2C3CCC4=CC(=O)C=CC4(C)C3(F)[C@@H](O)CC2(C)C1(O)C(=O)CO (some centres unmarked) [drawing 102] | 67% |
| Nc1nc(Cl)c2ncn(CCCCCB(O)O)c2n1 [drawing 103] | 8% |
| OB(O)CCCCCn1c(-c2cscn2)nc2ccccc21 [CCI-7034] | -32% |
| OB(O)CCCCn1c(C(F)(F)F)nc2ccccc21 [drawing 101] | -29% |

Same assay, conditions: PBMC, 48 h, IL-2 secretion (h) (PBMC), PHA 20 μg/ml, 48 h; 3×10^−6 M; read-out: % Inhibition of Control Values

| Structure (SMILES) | inhibition at 3 µM |
| --- | --- |
| Nc1nc(Cl)c2ncn(CCCCCB(O)O)c2n1 [drawing 84] | 78% |
| OB(O)CCCCCn1c(-c2cscn2)nc2ccccc21 [drawing 81] | 56% |
| OB(O)CCCCn1c(C(F)(F)F)nc2ccccc21 [drawing 82] | 72% |
| N#Cc1ncnc2c1ncn2CCCCCB(O)O [CCI-7048] | 23% |
| C[C@@H]1CC2C3CCC4=CC(=O)C=CC4(C)C3(F)[C@@H](O)CC2(C)C1(O)C(=O)CO (some centres unmarked) [drawing 83] | 18% |

Same assay, conditions: PBMC, 48 h, IL-4 secretion (h) (PBMC), ConA 20 μg/ml, 48 h; 3×10^−6 M; read-out: % Inhibition of Control Values

| Structure (SMILES) | inhibition at 3 µM |
| --- | --- |
| Nc1nc(Cl)c2ncn(CCCCCB(O)O)c2n1 [drawing 89] | -30% |
| C[C@@H]1CC2C3CCC4=CC(=O)C=CC4(C)C3(F)[C@@H](O)CC2(C)C1(O)C(=O)CO (some centres unmarked) [drawing 88] | 118% |
| N#Cc1ncnc2c1ncn2CCCCCB(O)O [CCI-7048] | -45% |

Same assay, conditions: PBMC, 48 h, IL-10 secretion (h) (PBMC), PHA 3 μg/ml, 48 h; 3×10^−6 M; read-out: % Inhibition of Control Values

| Structure (SMILES) | inhibition at 3 µM |
| --- | --- |
| N#Cc1ncnc2c1ncn2CCCCCB(O)O [drawing 99] | 13% |
| C[C@@H]1CC2C3CCC4=CC(=O)C=CC4(C)C3(F)[C@@H](O)CC2(C)C1(O)C(=O)CO (some centres unmarked) [drawing 97] | 62% |
| OB(O)CCCCCn1c(-c2cscn2)nc2ccccc21 [CCI-7034] | 42% |
| OB(O)CCCCn1c(C(F)(F)F)nc2ccccc21 [drawing 96] | 17% |
| N#Cc1ccc2c(ccn2CCCCCB(O)O)c1 [drawing 95] | 36% |

Same assay, conditions: TNF-α secretion (h) (PBMC), LPS 1 μg/ml, 24 h

| Structure (SMILES) | IC50 |
| --- | --- |
| OB(O)CCCCCn1c(-c2cscn2)nc2ccccc21 [drawing 111] | > 3000 nM |
| COc1ccc(-c2nc3ccccc3n2CCCCCB(O)O)cc1 [drawing 110] | 200 nM |
| N#Cc1ccc2c(ccn2CCCCCB(O)O)c1 [drawing 112] | 1500 nM |
| C[C@@H]1CC2C3CCC4=CC(=O)C=CC4(C)C3(F)[C@@H](O)CC2(C)C1(O)C(=O)CO (some centres unmarked) [drawing 114] | 36 nM |

Same assay, conditions: human; Cell viability (h) (PBMC/24 h), MTT; 3×10^−6 M

| Structure (SMILES) | cytotoxicity at 24 h |
| --- | --- |
| N#Cc1ncnc2c1ncn2CCCCCB(O)O [drawing 109] | 5% |
| C[C@@H]1CC2C3CCC4=CC(=O)C=CC4(C)C3(F)[C@@H](O)CC2(C)C1(O)C(=O)CO (some centres unmarked) [drawing 107] | 6% |
| OB(O)CCCCCn1c(-c2cscn2)nc2ccccc21 [CCI-7034] | -9% |
| N#Cc1ccc2c(ccn2CCCCCB(O)O)c1 [drawing 105] | 0% |
| OB(O)CCCCn1c(C(F)(F)F)nc2ccccc21 [drawing 106] | -6% |
| Nc1nc(Cl)c2ncn(CCCCCB(O)O)c2n1 [drawing 108] | 6% |
